Read-outs that look alike come from different tables or passages of the source. Where no end group is shown, it is not given here. [ ]: non-standard residue; d: D form. Lys(Me3) = C[N+](C)(C)CCCC[C@H](N)C(=O)O; Lys(Me2) = CN(C)CCCC[C@H](N)C(=O)O

Experimental findings from PMC7072245, “Macromolecular Crowding Increases the Affinity of the PHD of ING4 for the Histone H3K4me3 Mark” (Biomolecules, 2020) are described below.

The target of assay [1] is T1, PHD of ING4 (Homo sapiens, UniProt Q9UNL4).
T1 construct: we did the titration by NMR on a sample of 10 µM PHD of ING4
Briefly: NMR titration of ING4-PHD with histone H3 peptides (CSP of W237 amide, 1H-15N HSQC). It counts as binding.
Procedure: These contained 50 or 10 µM uniformly -^15N enriched PHD in 20 mM sodium phosphate pH 6.5, 50 mM NaCl, 1 mM perdeuterated dithiotreitol, 5% (v/v) ^2H2O, and 0.01% (w/v) NaN3, plus different concentrations of Ficoll 70. […] Thus, the NMR titrations were completed in less than 24 h. NMR spectra were recorded at 25 °C on a BRUKER Avance III 800 spectrometer equipped with a TCI cryogenically cooled probe. At a concentration of 50 µM PHD, ^1H-^15N Heteronuclear Single Quantum Coherence (HSQC) spectra could be recorded in about 2 h with sufficient quality to measure the chemicals shift perturbations on peptide addition. At 10 µM PHD concentration, HSQC were recorded with only 16 t1 points and a ^15N spectral width of 10 ppm. […] In this way, the full titration of ING4-PHD with the histone peptide could be measured in less than 24 h.
Next, we measured the affinity of the binding in presence of Ficoll, by means of a NMR titration of the PHD with H3K4me3 peptide but in presence of 15% Ficoll (Figure 2). For binding analysis, we used the backbone amide signal of amino acid W237 because it experiences a large CSP upon peptide binding and is well isolated in a region of the spectrum with few other signals. […] This makes it necessary to reduce the protein concentration of the experiment.
On the other hand, the presence of 15% Ficoll 70 lowered the signal to noise ratio of the NMR experiment as signals got broader due to the increased viscosity of sample. So, we had to decrease the protein concentration of the experiment but not so much as to lose the signals in the noise. […] In these conditions, we could record ^1H-^15N HSQC experiments in 2 h and complete the titration in less than 1 day.
Once we got the optimum conditions, we did the titration by NMR on a sample of 10 µM PHD of ING4 in the presence of increasing amounts of H3K4me3 peptide (Figure 3).
Titrations at different percentages of Ficoll (0, 5, and 10 %) were done by NMR in a same manner as the titration at 15% Ficoll.

The target in assay [2] is T2, Plant Homeodomain (PHD) of ING4 (uniformly 15N enriched (NMR samples)).
T2 chain: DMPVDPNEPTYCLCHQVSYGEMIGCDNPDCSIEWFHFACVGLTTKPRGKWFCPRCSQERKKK
Briefly: NMR titration; 10 µM 15N PHD titrated with peptide, 15% Ficoll 70; 20 mM sodium phosphate pH 6.5, 50 mM NaCl, 1 mM DTT, 25 °C; CSP of W237 amide in 1H-15N HSQC, single site fit. To be noted: both partners purified.

Assay [3] deals with T2, Plant Homeodomain (PHD) of ING4. Description: NMR titration; PHD titrated with peptide, 0% Ficoll 70; 20 mM sodium phosphate pH 6.5, 50 mM NaCl, 1 mM DTT, 25 °C; CSP of W237 amide. The settings on record: both partners purified.

On to `C[C@H](N)C(=O)N[C@@H](CCCNC(=N)N)C(=O)N[C@H](C(=O)N[C@@H](CCCCN(C)C)C(=O)N[C@@H](CCC(N)=O)C(=O)N[C@H](C(=O)N[C@@H](C)C(=O)N[C@@H](CCCNC(=N)N)C(=O)N[C@@H](CCCCN)C(=O)N[C@@H](CO)C(=O)N[C@H](C(=O)NCC(=O)NCC(=O)N[C@@H](CCCCN)C(=O)N[C@@H](C)C(=O)N[C@@H](Cc1ccc(O)cc1)C(=O)O)[C@@H](C)O)[C@@H](C)O)[C@@H](C)O` [H3K4me2], for which binding in assay [1] was characterised by a dissociation constant (Kd) of 1.4 ± 0.6 µM.

In the case of `C[C@H](N)C(=O)N[C@@H](CCCNC(=N)N)C(=O)N[C@H](C(=O)N[C@@H](CCCC[N+](C)(C)C)C(=O)N[C@@H](CCC(N)=O)C(=O)N[C@H](C(=O)N[C@@H](C)C(=O)N[C@@H](CCCNC(=N)N)C(=O)N[C@@H](CCCCN)C(=O)N[C@@H](CO)C(=O)N[C@H](C(=O)NCC(=O)NCC(=O)N[C@@H](CCCCN)C(=O)N[C@@H](C)C(=O)N[C@@H](Cc1ccc(O)cc1)C(=O)O)[C@@H](C)O)[C@@H](C)O)[C@@H](C)O` [H3K4me3], the dissociation constant (Kd) (in general, the free concentration of one partner at which half of the binding sites on the other are occupied at equilibrium, for simple one-to-one binding) was 0.4 ± 0.3 µM in assay [1] and 3.9 ± 0.7 µM in assay [1] (absence of Ficoll (0%), NMR, 20 mM sodium phosphate pH 6.5, 50 mM NaCl, 25 °C, read-out: KD).

In the case of `CNCCCC[C@H](NC(=O)[C@@H](NC(=O)[C@H](CCCNC(=N)N)NC(=O)[C@H](C)N)[C@@H](C)O)C(=O)N[C@@H](CCC(N)=O)C(=O)N[C@H](C(=O)N[C@@H](C)C(=O)N[C@@H](CCCNC(=N)N)C(=O)N[C@@H](CCCCN)C(=O)N[C@@H](CO)C(=O)N[C@H](C(=O)NCC(=O)NCC(=O)N[C@@H](CCCCN)C(=O)N[C@@H](C)C(=O)N[C@@H](Cc1ccc(O)cc1)C(=O)O)[C@@H](C)O)[C@@H](C)O` [H3K4me1], the dissociation constant Kd in assay [1] is 12 ± 4 µM.

B1: histone H3 peptide (residues 1-15 plus C-terminal Tyr) dimethylated at lysine 4 (peptide)
peptide: ART[Lys(Me2)]QTARKSTGGKAY
notes: histone H3 N-terminal tail, residues 1-15; extra Tyr residue at the C-terminus for concentration measurement by UV absorbance; also called H3K4me2
Regarding B1, the Kd in assay [2] was 1.4 ± 0.6 µM.

B2: histone H3 peptide (residues 1-15 plus C-terminal Tyr) trimethylated at lysine 4 (peptide)
peptide: ART[Lys(Me3)]QTARKSTGGKAY
notes: histone H3 N-terminal tail, residues 1-15; extra Tyr residue at the C-terminus for concentration measurement by UV absorbance; also called H3K4me3; H3K4me3 peptide
Take B2: the Kd turned out to be 0.4 ± 0.3 µM in assay [2] and 3.9 ± 0.7 µM in assay [3].

B3: histone H3 peptide (residues 1-15 plus C-terminal Tyr), unmethylated at lysine 4 (peptide)
peptide: ARTKQTARKSTGGKAY
notes: histone H3 N-terminal tail, residues 1-15; extra Tyr residue at the C-terminus for concentration measurement by UV absorbance; also called H3K4me0; unmethylated histone H3 tail
As to B3, in assay [2], the Kd stood at 100 ± 10 µM.
